In patent publication US8598210B2, “Prolyl hydroxylase inhibitors and methods of use” (Akebia Therapeutics Inc., priority 2006, dated 2013):

Legend:
[1] = target: Recombinant human EGLN-1-179/426 (Homo sapiens (Human), UniProt Q9GZT9); assay: EGLN-1 Activity Assay (MALDI-TOF MS); format: biochemical; conditions: read-out: EGLIN1 IC50
Experimental: (§1) Hydroxylated peptide product is identified from substrate by the gain of 16 Da. Data defined as percent conversion of substrate to product is analyzed in GraphPad Prism 4 to calculate IC50 values.

EPO = assay: Mouse Serum EPO Assay (mouse ischemic hindlimb study); format: in vivo; conditions: for EPO response: in vivo response
Experimental: (§2) Mouse Ischemic Hindlimb Study
(§3) All animal work is conducted in accordance with the Guide for the Care and Use of Laboratory Animals (National Academy of Sciences; Copyright© 1996) and the Institutional Animal Care and Use Committee guidelines at Procter and Gamble Pharmaceuticals. We studied 9-10 week old male C57B1/6 mice from Charles River Laboratory (Portage, Mich.). The mice are orally dosed with vehicle (aqueous carbonate buffer, 50 mM; pH 9.0) or compound 1 in vehicle at 50 mg/kg or 100 mg/kg. The animals are dosed three times: day 1 at 8 am and 5 pm, day 2 at 8 am. One hour after the first dose, unilateral arterial ligation is performed under anesthesia using isoflurane. The femoral artery is ligated proximal to the origin of the popliteal artery. The contralateral limb underwent a sham surgical procedure. Ligation is performed in an alternating fashion between right and left hindlimbs. Two hours after 8 am dosing on day 2, we obtained blood by ventricular stick while the mice are anesthetized with isoflurane. Serum samples for EPO analysis are obtained using gel clot serum separation tubes. Heart, liver, and gastrocnemius muscles are harvested, snap-frozen in liquid nitrogen, and stored in −80° C. until use.
The mouse serum EPO is detected using Mouse Quantikine Erythropoietin ELISA kit from R&D Systems according to manufacturer's instructions.

[2] = target: Full-length recombinant human EGLN-3 (His-MBP-TVMV-EGLN-3 fusion) (Homo sapiens (Human), UniProt Q9H6Z9); assay: EGLN-3 enzyme activity assay (MALDI-TOF MS); format: biochemical; conditions: read-out: EGLIN3 IC50
Sequence of Full-length recombinant human EGLN-3 (His-MBP-TVMV-EGLN-3 fusion) (Q9H6Z9 whole entry, the tested form may be a part): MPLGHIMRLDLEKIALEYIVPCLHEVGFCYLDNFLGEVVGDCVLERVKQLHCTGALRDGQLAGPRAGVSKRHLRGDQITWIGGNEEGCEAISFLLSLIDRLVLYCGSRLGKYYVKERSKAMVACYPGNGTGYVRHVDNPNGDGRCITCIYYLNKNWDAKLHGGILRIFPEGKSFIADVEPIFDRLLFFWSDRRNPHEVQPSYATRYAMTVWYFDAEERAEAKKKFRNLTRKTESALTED
Experimental: as §1

HIF-1α = assay: Mouse Tissue HIF Western Blot Analysis; format: in vivo; conditions: FIG. 1; immunoblot analysis of nuclear extracts
Experimental: as §2, §3
Mouse Tissue HIF Western Blot Analysis
Tissues from mice stored at −80° C. are powdered with mortar and pestle chilled with liquid nitrogen. […]

Sequence of Recombinant human EGLN-1-179/426 (Q9GZT9 179-426): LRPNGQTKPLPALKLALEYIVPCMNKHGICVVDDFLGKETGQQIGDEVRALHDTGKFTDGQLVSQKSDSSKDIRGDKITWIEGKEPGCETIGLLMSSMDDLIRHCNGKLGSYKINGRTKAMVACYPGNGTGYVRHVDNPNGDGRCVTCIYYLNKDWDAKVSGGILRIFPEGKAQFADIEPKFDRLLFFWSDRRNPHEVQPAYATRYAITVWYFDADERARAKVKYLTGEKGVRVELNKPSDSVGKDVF

Compound | IC50 [1] [nM] | EPO response (EPO) | IC50 [2] [nM] | further results
O=C(O)CNC(=O)c1ncc(-c2cccc(-c3nn[nH]n3)c2)cc1O [({3-Hydroxy-5-[3-(2H-tetrazol-5-yl)phenyl]-pyridine-2-carbonyl}-amino)-acetic acid] | 400 | – | – | –
COC(=O)CNC(=O)c1ncc(-c2cccc(C(=O)N3CCCC3)c2)cc1O [({3-Hydroxy-5-[3-(pyrrolidine-1-carbonyl)-phenyl]-pyridine-2-carbonyl}-amino)-acetic acid methyl ester] | 2500 | – | – | –
O=C(O)CNC(=O)c1ncc(-c2cccc(C(=O)N3CCCC3)c2)cc1O [({3-Hydroxy-5-[3-(pyrrolidine-1-carbonyl)phenyl]-pyridine-2-carbonyl}amino)-acetic acid] | 300 | – | – | –
Cc1ccc(-c2ccc(C(=O)NCC(=O)O)c(O)c2)cc1 [[(3-Hydroxy-4′-methyl-biphenyl-4-carbonyl)-amino]-acetic acid] | 20000 | yes | – | –
COC(=O)CNC(=O)c1ncc(-c2ccc(C)cc2)cc1O [[(3-Hydroxy-5-(4-methylphenyl)-pyridine-2-carbonyl)-amino]-acetic acid methyl ester] | 4100 | – | 52300 | –
Cc1ccc(-c2cnc(C(=O)NCC(=O)O)c(O)c2)cc1 [[(3-Hydroxy-5-(4-methylphenyl)pyridine-2-carbonyl)amino]-acetic acid] | – | yes | 180 | –
COC(=O)CNC(=O)c1ncc(-c2ccccc2Cl)cc1O [{[5-(2-Chloro-phenyl)-3-hydroxy-pyridine-2-carbonyl]-amino}-acetic acid methyl ester] | – | yes | 37500 | –
O=C(O)CNC(=O)c1ncc(-c2ccccc2Cl)cc1O [{[5-(2-Chlorophenyl)-3-hydroxypyridine-2-carbonyl]amino}-acetic acid] | – | yes | 390 | –
Cc1ccc(Cl)cc1-c1cnc(C(=O)NCC(=O)O)c(O)c1 [{[5-(2-Methyl-5-chlorophenyl)-3-hydroxypyridine-2-carbonyl]amino}-acetic acid] | 2500 | – | – | –
COC(=O)CNC(=O)c1ncc(-c2cccc(C(N)=O)c2)cc1O [{[5-(3-Carbamoyl-phenyl)-3-hydroxy-pyridine-2-carbonyl]-amino}-acetic acid methyl ester] | 11200 | – | – | –
O=C(O)CNC(=O)c1ncc(-c2cccc(Cl)c2)cc1O [{[5-(3-Chlorophenyl)-3-hydroxypyridine-2-carbonyl]amino}-acetic acid] | – | yes | – | erythropoietin level versus vehicle in mouse serum (EPO; FIG. 2, after oral dosing): elevated; stabilization of HIF-1α in mouse liver (HIF-1α): stabilization
N#Cc1cccc(-c2cnc(C(=O)NCC(=O)O)c(O)c2)c1 [{[5-(3-Cyanophenyl)-3-hydroxypyridine-2-carbonyl]amino}-acetic acid] | 190 | – | – | –
COC(=O)CNC(=O)c1ncc(-c2cccc(Cl)c2)cc1O [{[5-(3-chloro-phenyl)-3-hydroxy-pyridine-2-carbonyl]-amino}-acetic acid methyl ester] | 2800 | yes | 21400 | –
COC(=O)CNC(=O)c1ncc(-c2ccc(Cl)cc2)cc1O [{[5-(4-Chloro-phenyl)-3-hydroxy-pyridine-2-carbonyl]-amino}-acetic acid methyl ester] | 3700 | – | – | –
N#Cc1ccc(-c2cnc(C(=O)NCC(=O)O)c(O)c2)cc1 [{[5-(4-Cyanophenyl)-3-hydroxypyridine-2-carbonyl]amino}-acetic acid] | – | yes | 560 | –
CC(C)Oc1ccc(-c2cnc(C(=O)NCC(=O)O)c(O)c2)cc1 [{[5-(4-Isopropoxyphenyl)-3-hydroxypyridine-2-carbonyl]amino}-acetic acid] | 1600 | – | – | –
CC(C)c1ccc(-c2cnc(C(=O)NCC(=O)O)c(O)c2)cc1 [{[5-(4-Isopropylphenyl)-3-hydroxypyridine-2-carbonyl]amino}-acetic acid] | 440 | – | – | –
{[5-(4-Chlorophenyl)-3-hydroxypyridine-2-carbonyl]amino}-acetic acid | – | yes | 83 | –
